BigSolDB 2.1

CC(C)(c1ccc(O)cc1)c1ccc(O)cc1
solubility (mole fraction)
Details | 273.15 K | 278.15 K | 283.15 K | 288.15 K | 293.15 K | 298.15 K | 303.15 K | 308.15 K | 313.15 K
in 1,4-dioxane | – | – | – | 0.205 | 0.224 | 0.245 | 0.264 | 0.285 | 0.307
in DMF | 0.298 | 0.308 | 0.324 | 0.342 | 0.361 | 0.383 | 0.409 | 0.43 | 0.452
in acetone | 0.293 | 0.301 | 0.311 | 0.321 | – | – | – | – | –
in acetonitrile | 0.135 | 0.141 | 0.15 | 0.16 | 0.169 | 0.176 | 0.185 | 0.196 | 0.207
in cyclohexanone | 0.0936 | 0.111 | 0.126 | 0.142 | 0.158 | 0.176 | 0.195 | 0.215 | 0.235
in ethanol | 0.21 | 0.215 | 0.221 | 0.227 | 0.233 | 0.24 | 0.246 | 0.253 | 0.26
in ethyl acetate | 0.235 | 0.237 | 0.24 | 0.243 | 0.246 | 0.251 | 0.255 | 0.26 | 0.265
in formamide | – | 0.14 | 0.151 | 0.164 | 0.178 | 0.193 | – | 0.231 | 0.252
in isopropanol | 0.0503 | 0.0603 | 0.0719 | 0.0858 | 0.097 | 0.111 | 0.123 | 0.139 | 0.153
in methanol | 0.187 | 0.19 | 0.194 | 0.198 | 0.202 | 0.207 | 0.212 | 0.217 | 0.223
in methyl acetate | 0.236 | 0.237 | 0.239 | 0.241 | 0.246 | 0.249 | 0.253 | 0.257 | 0.261
in n-butanol | 0.0748 | 0.0833 | 0.0942 | 0.108 | 0.12 | 0.136 | 0.149 | 0.163 | 0.181
in n-propanol | 0.176 | 0.18 | 0.188 | 0.195 | 0.2 | 0.207 | 0.214 | 0.22 | 0.225
in sec-butanol | 0.0342 | 0.0397 | 0.0472 | 0.0566 | 0.0654 | 0.0735 | 0.083 | 0.093 | 0.104
